Results as given in patent US20090131431A1, “Pyrazolo[3,4-b]pyridine compounds, and their use as a PDE4 inhibitors” (priority 2005, published 2009).

Target: T1, PDE4B (human recombinant) (Homo sapiens, UniProt Q07343)
T1 construct: made in house
Assay: Inhibition of PDE4B activity: SPA and/or Fluorescence Polarisation (FP) assay
Format: biochemical
Conditions: one reading (n=1) or average of 2 or more readings, read-out: PDE4B pIC50 (±about 0.5) (converted)
Summary of the method: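 Human recombinant PDE4B activity measured by SPA with [3H]cAMP at about 10 nM, 1 h at ambient temperature, enzyme set for ≤20% substrate hydrolysis, or by IMAP FP with Fl-cAMP at about 40 nM, 40 min at ambient temperature under linear conditions. Inhibition curves fitted; values reported as pIC50.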

T1 sequence (Q07343 1-564 isoform Q07343-2): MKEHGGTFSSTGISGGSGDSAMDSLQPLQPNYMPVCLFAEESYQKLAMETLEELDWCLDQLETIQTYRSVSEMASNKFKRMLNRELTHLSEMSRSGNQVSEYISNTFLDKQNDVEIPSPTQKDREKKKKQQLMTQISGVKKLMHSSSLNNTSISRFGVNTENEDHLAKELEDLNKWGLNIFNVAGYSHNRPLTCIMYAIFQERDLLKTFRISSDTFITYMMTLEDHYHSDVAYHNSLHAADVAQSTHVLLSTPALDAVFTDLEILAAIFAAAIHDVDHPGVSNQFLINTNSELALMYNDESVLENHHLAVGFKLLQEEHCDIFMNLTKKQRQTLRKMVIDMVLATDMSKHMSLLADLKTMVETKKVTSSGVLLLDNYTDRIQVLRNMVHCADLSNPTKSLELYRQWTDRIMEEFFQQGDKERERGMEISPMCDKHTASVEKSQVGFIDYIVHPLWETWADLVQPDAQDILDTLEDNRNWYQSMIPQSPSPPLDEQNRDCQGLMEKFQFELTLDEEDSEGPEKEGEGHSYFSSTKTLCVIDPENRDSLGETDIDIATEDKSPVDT

IC50 [nM] | Compound
0.126 to 1 | CCc1nc2c(cnn2CC)c(NC2CCOCC2)c1CNC(=O)c1ccc(N2CCCCCCC2)cc1 [Example 187, N-{[1,6-diethyl-4-(tetrahydro-2H-pyran-4-ylamino)-1H-pyrazolo[3,4-b]pyridin-5-yl]methyl}-4-(hexahydro-1(2H)-azocinyl)benzamide]
0.126 to 1 | CCn1ncc2c(NC3CCOCC3)c(CNC(=O)c3cnc(C)s3)c(C(F)(F)F)nc21 [Example 349, N-{[1-Ethyl-4-(tetrahydro-2H-pyran-4-ylamino)-6-(trifluoromethyl)-1H-pyrazolo[3,4-b]pyridin-5-yl]methyl}-2-methyl-1,3-thiazole-5-carboxamide]
0.126 to 1 | CCc1nc2c(cnn2CC)c(NC2CCOCC2)c1CNC(=O)c1cncs1 [Example 234, N-{[1,6-diethyl-4-(tetrahydro-2H-pyran-4-ylamino)-1H-pyrazolo[3,4-b]pyridin-5-yl]methyl}-1,3-thiazole-5-carboxamide]
0.01 to 0.1 | CCc1nc2c(cnn2CC)c(NC2CCN(C(N)=O)CC2)c1CNC(=O)c1cccc(N2CCCC2=O)c1 [Example 247, 4-({1,6-diethyl-5-[({[3-(2-oxo-1-pyrrolidinyl)phenyl]carbonyl}amino)methyl]-1H-pyrazolo[3,4-b]pyridin-4-yl}amino)-1-piperidinecarboxamide]
0.01 to 0.1 | CCc1nc2c(cnn2CC)c(NC2CCN(C(N)=O)CC2)c1CNC(=O)c1ccc(NC(C)=O)cc1O [Example 241, 4-({5-[({[4-(acetylamino)-2-hydroxyphenyl]carbonyl}amino)methyl]-1,6-diethyl-1H-pyrazolo[3,4-b]pyridin-4-yl}amino)-1-piperidinecarboxamide]
0.126 to 1 | CCn1ncc2c(NC3CCOCC3)c(CNC(=O)c3ccc(NC(C)=O)cc3)c(C)nc21 [Example 93, 4-(acetylamino)-N-{[1-ethyl-6-methyl-4-(tetrahydro-2H-pyran-4-ylamino)-1H-pyrazolo[3,4-b]pyridin-5-yl]methyl}benzamide]
0.01 to 0.1 | CCc1nc2c(cnn2CC)c(NC2CCOCC2)c1CNC(=O)c1ccc(NC(C)=O)cc1O [Example 251, 4-(acetylamino)-N-{[1,6-diethyl-4-(tetrahydro-2H-pyran-4-ylamino)-1H-pyrazolo[3,4-b]pyridin-5-yl]methyl}-2-hydroxybenzamide]
0.126 to 1 | CCOc1ccccc1C(=O)NCc1c(C)nc2c(cnn2CC)c1NC1CCOCC1 [Example 219, N-{[1-ethyl-6-methyl-4-(tetrahydro-2H-pyran-4-ylamino)-1H-pyrazolo[3,4-b]pyridin-5-yl]methyl}-2-(ethyloxy)benzamide]
0.126 to 1 | CCc1nc2c(cnn2CC)c(NC2CCOCC2)c1CNS(=O)(=O)Cc1ccccc1 [Example 169, N-{[1,6-diethyl-4-(tetrahydro-2H-pyran-4-ylamino)-1H-pyrazolo[3,4-b]pyridin-5-yl]methyl}-1-phenylmethanesulfonamide]
0.01 to 0.1 | CCOc1ccccc1C(=O)NCc1c(CC)nc2c(cnn2CC)c1NC1CCOCC1 [Example 160, N-{[1,6-diethyl-4-(tetrahydro-2H-pyran-4-ylamino)-1H-pyrazolo[3,4-b]pyridin-5-yl]methyl}-2-(ethyloxy)benzamide]
0.126 to 1 | CCc1nc2c(cnn2CC)c(NC2CCOCC2)c1CNC(=O)c1ccccc1 [Example 196, N-{[1,6-diethyl-4-(tetrahydro-2H-pyran-4-ylamino)-1H-pyrazolo[3,4-b]pyridin-5-y]methyl}benzamide]
0.126 to 1 | CCc1nc2c(cnn2CC)c(NC2CCOCC2)c1CNC(=O)c1cnccn1 [Example 146, N-{[1,6-diethyl-4-(tetrahydro-2H-pyran-4-ylamino)-1H-pyrazolo[3,4-b]pyridin-5-yl]methyl}-2-pyrazinecarboxamide]
0.126 to 1 | CCc1nc2c(cnn2CC)c(NC2CCN(C(N)=O)CC2)c1CNC(=O)c1ccc2c(c1)CCC2 [Example 206, 4-[(5-{[(2,3-dihydro-1H-inden-5-ylcarbonyl)amino]methyl}-1,6-diethyl-1H-pyrazolo[3,4-b]pyridin-4-yl)amino]-1-piperidinecarboxamide]
0.01 to 0.1 | CCc1nc2c(cnn2CC)c(NC2CCOCC2)c1CNC(=O)c1ccc2c(=O)[nH][nH]c2c1 [Example 257, N-{[1,6-diethyl-4-(tetrahydro-2H-pyran-4-ylamino)-1H-pyrazolo[3,4-b]pyridin-5-yl]methyl}-3-oxo-2,3-dihydro-1H-indazole-6-carboxamide]
0.01 to 0.1 | CCc1nc2c(cnn2CC)c(NC2CCOCC2)c1CNC(=O)c1cnc(C)cn1 [Example 236, N-{[1,6-diethyl-4-(tetrahydro-2H-pyran-4-ylamino)-1H-pyrazolo[3,4-b]pyridin-5-yl]methyl}-5-methyl-2-pyrazinecarboxamide]
0.01 to 0.1 | CCn1ncc2c(NC3CCOCC3)c(CNC(=O)c3cccc4c3OCC4)c(C)nc21 [Example 220, N-{[1-ethyl-6-methyl-4-(tetrahydro-2H-pyran-4-ylamino)-1H-pyrazolo[3,4-b]pyridin-5-yl]methyl}-2,3-dihydro-1-benzofuran-7-carboxamide]

IC50 [nM] | Compound
0.126 to 1 | CCn1ncc2c(NC3CCOCC3)c(CNC(=O)c3cccc(N(C)C)c3)cnc21 [Example 120, 3-(dimethylamino)-N-{[1-ethyl-4-(tetrahydro-2H-pyran-4-ylamino)-1H-pyrazolo[3,4-b]pyridin-5-yl]methyl}benzamide]
0.126 to 1 | CCn1ncc2c(NC3CCN(C(N)=O)CC3)c(CNC(=O)c3ccc(S(C)(=O)=O)cc3)c(C)nc21 [Example 259, 4-({1-ethyl-6-methyl-5-[({[4-(methylsulfonyl)phenyl]carbonyl}amino)methyl]-1H-pyrazolo[3,4-b]pyridin-4-yl}amino)-1-piperidinecarboxamide]
0.01 to 0.1 | CCc1nc2c(cnn2CC)c(NC2CCOCC2)c1CNC(=O)c1ccc(N2CCOCC2)cc1 [Example 180, N-{[1,6-diethyl-4-(tetrahydro-2H-pyran-4-ylamino)-1H-pyrazolo[3,4-b]pyridin-5-yl]methyl}-4-(4-morpholinyl)benzamide]
0.01 to 0.1 | CCc1nc2c(cnn2CC)c(NC2CCOCC2)c1CNC(=O)c1ccc(C(C)C)cc1 [Example 193, N-{[1,6-diethyl-4-(tetrahydro-2H-pyran-4-ylamino)-1H-pyrazolo[3,4-b]pyridin-5-yl]methyl}-4-(1-methylethyl)benzamide]
0.01 to 0.1 | CCn1ncc2c(NC3CCOCC3)c(CNC(=O)c3ccc(NC(C)=O)cc3O)c(C)nc21 [Example 276, 4-(acetylamino)-N-{[1-ethyl-6-methyl-4-(tetrahydro-2H-pyran-4-ylamino)-1H-pyrazolo[3,4-b]pyridin-5-yl]methyl}-2-hydroxybenzamide]
0.01 to 0.1 | CCc1nc2c(cnn2CC)c(NC2CCOCC2)c1CNC(=O)c1ccc(NC(C)=O)cc1OC [Example 157, 4-(acetylamino)-N-{[1,6-diethyl-4-(tetrahydro-2H-pyran-4-ylamino)-1H-pyrazolo[3,4-b]pyridin-5-yl]methyl}-2-(methyloxy)benzamide]
0.01 to 0.1 | CCn1ncc2c(NC3CCOCC3)c(CNC(=O)c3cccc(NC(C)=O)c3)c(C)nc21 [Example 280, 3-(acetylamino)-N-{[1-ethyl-6-methyl-4-(tetrahydro-2H-pyran-4-ylamino)-1H-pyrazolo[3,4-b]pyridin-5-yl]methyl}benzamide]
0.126 to 1 | CCn1ncc2c(NC3CCOCC3)c(CNC(=O)c3ccc4c(c3)CCC4)c(C)nc21 [Example 284, N-{[1-ethyl-6-methyl-4-(tetrahydro-2H-pyran-4-ylamino)-1H-pyrazolo[3,4-b]pyridin-5-yl]methyl}-2,3-dihydro-1H-indene-5-carboxamide]
0.126 to 1 | CCc1nc2c(cnn2CC)c(NC2CCOCC2)c1CNC(=O)c1ccc(C)nc1 [Example 334, N-{[1,6-diethyl-4-(tetrahydro-2H-pyran-4-ylamino)-1H-pyrazolo[3,4-b]pyridin-5-yl]methyl}-6-methyl-3-pyridinecarboxamide]
0.126 to 1 | CCc1nc2c(cnn2CC)c(NC2CCOCC2)c1CNS(=O)(=O)C(C)C [Example 173, N-{[1,6-diethyl-4-(tetrahydro-2H-pyran-4-ylamino)-1H-pyrazolo[3,4-b]pyridin-5-yl]methyl}-2-propanesulfonamide]
0.126 to 1 | CCc1nc2c(cnn2CC)c(NC2CCOCC2)c1CNC(=O)c1cnc(C(C)C)nc1 [Example 346, N-{[1,6-diethyl-4-(tetrahydro-2H-pyran-4-ylamino)-1H-pyrazolo[3,4-b]pyridin-5-yl]methyl}-2-(1-methylethyl)-5-pyrimidinecarboxamide]
0.01 to 0.1 | CCc1nc2c(cnn2CC)c(NC2CCOCC2)c1CNC(=O)c1nc2ccc(Cl)cc2nc1OC [Example 174, 6-chloro-N-{[1,6-diethyl-4-(tetrahydro-2H-pyran-4-ylamino)-1H-pyrazolo[3,4-b]pyridin-5-yl]methyl}-3-(methyloxy)-2-quinoxalinecarboxamide]
0.126 to 1 | CCn1ncc2c(NC3CCOCC3)c(CNC(=O)c3ccc(-n4cccc4)nc3)c(C)nc21 [Example 214, N-{[1-ethyl-6-methyl-4-(tetrahydro-2H-pyran-4-ylamino)-1H-pyrazolo[3,4-b]pyridin-5-yl]methyl}-6-(1H-pyrrol-1-yl)-3-pyridinecarboxamide]
0.01 to 0.1 | CCc1nc2c(cnn2CC)c(NC2CCN(C(N)=O)CC2)c1CNC(=O)c1ccccc1F [Example 246, 4-{[1,6-diethyl-5-({[(2-fluorophenyl)carbonyl]amino}methyl)-1H-pyrazolo[3,4-b]pyridin-4-yl]amino}-1-piperidinecarboxamide]
0.126 to 1 | CCn1ncc2c(NC3CCOCC3)c(CNC(=O)c3cnc(C)s3)c(C)nc21 [Example 322, N-{[1-ethyl-6-methyl-4-(tetrahydro-2H-pyran-4-ylamino)-1H-pyrazolo[3,4-b]pyridin-5-yl]methyl}-2-methyl-1,3-thiazole-5-carboxamide]
